Consider eight substances from patent US8088746B2, “Bis-modified bicyclic nucleic acid analogs” (Isis Pharmaceuticals, Inc., priority 2006, dated 2012).

Strand notation (5' to 3'): a small letter for the sugar, then the base; units joined by * are phosphorothioate-linked, units joined directly phosphodiester-linked; [ ] holds rarer units or linkages, { } end groups; capitals alone tell only the bases. [cMOE-R-N] = 6-(R)-CH2-O-CH3 BNA nucleoside (4'-CH(CH2OCH3)-O-2' bridge, R configuration) (N: the base); [6'R-Me-BNA] = 6-(R)-CH3 bicyclic nucleoside (R-constrained ethyl); [5'S-Me-BNA] = 5'-(S)-CH3 4'-CH2-O-2' bicyclic nucleoside; [6'S-cMOE] = 6-(S)-CH2-O-CH3 bicyclic nucleoside; e = 2'-O-(2-methoxyethyl) (MOE); l = locked nucleic acid (LNA); k = constrained ethyl (cEt); v = modified nucleoside v; [5mC] = 5-methylcytosine; d = 2'-deoxy (DNA)

In data set [1] the test system is PTEN. The data set is described as follows: 2-14-2 gapped oligomers targeted to PTEN (Example 50), in vivo single injection, liver mRNA. The conditions noted are these: 72 hrs.
For data set [2], the system named is PTEN. The data set is described as follows: 2-14-2 gapped oligomers targeted to PTEN (Example 42), in vivo single injection, liver mRNA. The conditions noted are these: for % UTC: liver mRNA, 72 hrs.
The test system of data set [3] is PTEN. The data set is described as follows: 5′-vinyl and LNA gapped oligomers targeted to PTEN (Example 51), in vivo single injection, liver mRNA. The settings on record: 64 hrs; for PTEN % UTC: 18 mers, liver mRNA; for ED50: PTEN liver mRNA.
The next data set has as its system RNA complement. The data set can be described thus: Tm by melting against RNA complement (Example 51). The conditions noted are these: 18 mers, melting against the RNA 20 mer (131566), 14 base complementary region.
Where [4] appears, read: injected once 60 mg/kg (last dose column).
The mark [5] stands for this setting: injected once, second dose column, printed 60 mg/kg.

Turning to “ISIS NO. 394420: MeCeTeGCTAGCCTCTGGATTeTe; 2′-O-MOE 2-14-2 gapped oligomer targeted to PTEN (CTGCTAGCCTCTGGATTT; sugars from the 5' end e2 d14 e2, [5mC] at 1, backbone not given here) [reference compound]”, the “% UTC” value is recorded as 79% with PTEN [1] (injected once 2 μmol/kg), 26% in the data set on PTEN [1] (injected once 10 μmol/kg), 79% with PTEN [2] (injected once 2 μmol/kg) and 26% in the data set with PTEN [2] (injected once 10 μmol/kg).

A word on the ED50: it is the midpoint of the dose-response relation. Turning to “ISIS NO. 394425: MeClTlGCTAGCCTCTGGATTlTl; 4′-CH2-O-2′ BNA 2-14-2 gapped oligomer targeted to PTEN (CTGCTAGCCTCTGGATTT; sugars from the 5' end l2 d14 l2, [5mC] at 1, backbone not given here) [reference compound]”, the “% UTC” value is reported as 11% in the data set with PTEN [2] (injected once 2 μmol/kg) and 2.1% in the data set on PTEN [2] (injected once 10 μmol/kg). Besides, the “PTEN % UTC” value in the data set with PTEN [3] (injected once 1.9 mg/kg) turned out to be 100%; in the data set on PTEN [3] (injected once 19 mg/kg), 8%; with PTEN [3] (setting [4]) it was 4%; in the data set on PTEN [3] (setting [5]), 35%. For the same substance, in the data set on PTEN [3] (injected once), the ED50 stood at 4.4 mg/kg. In addition, the Tm in the data set on RNA complement turned out to be 61.6 °C.

Consider “ISIS NO. 400521: CSUSGCTAGCCTCTGGATUSUS; 5′-(S)-CH3 BNA 2-14-2 gapped oligomer targeted to PTEN (CUGCTAGCCTCTGGATUU; sugars from the 5' end [5'S-Me-BNA]2 d14 [5'S-Me-BNA]2, backbone and methylation of C not given here)”, for which the “efficacy, comparison in words” value in the data set on PTEN [2] (high dose group (10 micromole/Kg)) was “essentially equally efficacious as 394425”. The “% UTC” value turned out to be 21.4% in the data set with PTEN [2] (injected once 2 μmol/kg) and 3.8% with PTEN [2] (injected once 10 μmol/kg).

In the case of “ISIS NO. 400522: CRURGCTAGCCTCTGGATURUR; 6-(R)-CH3 BNA 2-14-2 gapped oligomer targeted to PTEN (CUGCTAGCCTCTGGATUU; sugars from the 5' end [6'R-Me-BNA]2 d14 [6'R-Me-BNA]2, backbone and methylation of C not given here)”, the “% UTC” value is 18% in the data set with PTEN [1] (injected once 2 μmol/kg) and 4% in the data set on PTEN [1] (injected once 10 μmol/kg).

As to “ISIS NO. 400523: CSUSGCTAGCCTCTGGATUSUS; 6-(S)-CH3 BNA 2-14-2 gapped oligomer targeted to PTEN (CUGCTAGCCTCTGGATUU; sugars from the 5' end k2 d14 k2, backbone and methylation of C not given here)”, the “% UTC” value in the data set with PTEN [1] (injected once 2 μmol/kg) worked out at 17%; in the data set with PTEN [1] (injected once 10 μmol/kg), 4%.

Turning to “ISIS NO. 400524: CRURGCTAGCCTCTGGATURUR; 6-(R)-CH2-O-CH3 BNA 2-14-2 gapped oligomer targeted to PTEN ([cMOE-R-C]*[cMOE-R-U]*dG*dC*dT*dA*dG*dC*dC*dT*dC*dT*dG*dG*dA*dT*[cMOE-R-U]*[cMOE-R-U]; antisense)”, the “% UTC” value in the data set with PTEN [1] (injected once 2 μmol/kg) is on record as 23%; with PTEN [1] (injected once 10 μmol/kg), 4%.

In the case of “ISIS NO. 400525: CSUSGCTAGCCTCTGGATUSUS; 6-(S)-CH2-O-CH3 BNA 2-14-2 gapped oligomer targeted to PTEN (CUGCTAGCCTCTGGATUU; sugars from the 5' end [6'S-cMOE]2 d14 [6'S-cMOE]2, backbone and methylation of C not given here)”, the figures for the “% UTC” value in the data set with PTEN [1] (injected once 2 μmol/kg) and with PTEN [1] (injected once 10 μmol/kg) were 21% and 3%, respectively.

As to “ISIS NO. 411027: CvUvGCTAGCCTCTGGATUvUv; 18 mer gapped oligomer targeted to PTEN, subscript v nucleoside illustrated in a drawing (CUGCTAGCCTCTGGATUU; sugars from the 5' end v2 d14 v2, backbone and methylation of C not given here; further chemistry not fully specified)”, the “PTEN % UTC” value in the data set on PTEN [3] (injected once 1.9 mg/kg) was found to be 89%; with PTEN [3] (injected once 19 mg/kg), 24%; with PTEN [3] (setting [4]) it was 7%; in the data set with PTEN [3] (setting [5]) it was 61%. Further, in the data set on PTEN [3] (injected once), the ED50 is recorded as 7.4 mg/kg. In addition, the Tm in the data set on RNA complement came out at 59.9 °C.
